Test results: patent publication US12023384B2, “Immunogenic peptides comprising an MHC class II T cell epitope and a redox motif” (IMCYSE SA, priority 2014, dated 2024)
No end group written: not given here.

Assays:
[1] = Evaluation of reductase activity on a synthetic peptide (fluorescence de-quenching); format: biochemical; conditions: peptide 25 μM, 2.5 μM (FITC-Gly-Cys-Asp)ox, PBS, 40 minutes, 25° C., fluorescence 530 nm
Protocol: The reductase activity of the peptides is determined using a fluorescent described in Tomazzolli et al. (2006) Anal. Biochem. 350, 105-112. Two peptides with a FITC label become self-quenching when they covalently attached to each other via a disulfide bridge. Upon reduction by a peptide in accordance with the present invention, the reduced individual peptides become fluorescent again.
Control experiments were performed with a peptide with a “normal” reducing peptide, i.e. a peptide with a redox motif but without additional histidine and with a peptide comprising no redox motif.
A FITC -NH-Gly-Cys-Asp-COOH peptide was synthesized (Eurogentec, Belgium) and self-quenched by solubilization in DMSO ((FITC-Gly-Cys-Asp)ox). The reduction of 2.5 μM (FITC-Gly-Cys-Asp)ox was followed on a 96 well plate during 40 minutes (25° C.) after incubation in PBS with peptide (25 μM) as listed in the accompanying table, or with 2 mM Dithiothreitol (DTT). Reduction was measured as a function of increase in fluorescence read at 530 nm after excitation at 494 nm, using a CytoFluor® multiplate reader (Applied Biosystems). Results are shown in the table of example 10 under the heading “Reductase activity”.

Human recombinant CD4 = Human recombinant CD4 (Homo sapiens, UniProt P01730); test: Polymerization of human recombinant CD4 (non-reducing PAGE); format: biochemical; design: key: The Table indicates whether or not a polymerization had occurred (+); conditions: 50 μM peptide, 300 ng recCD4, Hepes buffer, 15 minutes at 68° C.
Protocol: Fifty μM of DTT is used as a positive control under the same conditions. LDS sample buffer (7.5 μl; non-reducing) is then added to 15 μl of the peptide/CD4 mixture. The mixture is then submitted to non-reducing PAGE. After Coomassie Blue staining, protein bands are analyzed for the presence of monomeric, dimeric or multimeric recCD4, as identified by the decreased migratory capacities into the gel. The Table indicates whether or not a polymerization had occurred (+).

[2] = test system: polyclonal CD4+CD25− cells obtained from animals in which EAE is effective; test: Bystander suppression assay with T cell line from immunised mice; format: cell-based, C57BL/6 mice; conditions: CD4+ T cell line from mice immunised 3 x 20 μg sc on aluminium hydroxide, after four re-stimulations
Protocol: Groups of C57BL/6 mice are immunised subcutaneously (20 μg) with the peptide of example 1 which contains the modified sequence motif [SEQ ID NO: 1] or control peptide [SEQ ID NO: 2, 4 or 7] adsorbed onto aluminium hydroxide. Three injections are performed at 2-week intervals. Ten days after the last immunisation, mice are sacrificed and CD4+ T cells (2×10^6 cells) are prepared from the spleen using magnetic beads. CD4+ T cells are then stimulated in vitro by the MOG T cell epitope (20 μg/ml) presented by adherent spleen cells (2×10^6 cells).
After four re-stimulations, a T cell line is tested in a bystander suppression assay with, as target cells, polyclonal CD4^+CD25^− cells obtained from animals in which EAE (Experimental autoimmune encephalomyelitis) is effective.

Substance	Reductase activity (%) [1] [%]	CD4 polymerisation (Human recombinant CD4)	capacity to induce death in target cells [2]
AAACHGCVRSLQPLALEGSLQKRG (proinsulin) [SEQ ID NO: 114, reference compound]	22	low	
AAACHPCVRSLQPLALEGSLQKRG (proinsulin) [SEQ ID NO: 112, reference compound]	75	+	
AAACPYCVRSLQPLALEGSLQKRG (proinsulin) [SEQ ID NO: 111, reference compound]	6	+	
AAHCHPCVRSLQPLALEGSLQKRG (proinsulin) [SEQ ID NO: 113]	64	+	
AHACPYCVRSLQPLALEGSLQKRG (proinsulin) [SEQ ID NO: 110]	13	+	
CPYCSRVVHLYRNGKD (CPYCSRVVHLYRNGKD-NH2; cysteine pairing not given here) [SEQ ID NO: 7, reference compound]			have the capacity to induce death in target cells
H CPYCVRSLQPLALEGSLQKRG (HCPYCVRSLQPLALEGSLQKRG; proinsulin) [SEQ ID NO: 108]	68	+	
HAACPYCVRSLQPLALEGSLQKRG (proinsulin) [SEQ ID NO: 109]	0	+	
HCPYCSRVVHLYRNGKD [SEQ ID NO: 1]			have the capacity to induce death in target cells
